Values of other authors, collected in patent publication US20220000967A1, “SYNTHETIC PEPTIDES INDUCING IMMUNOGENIC CELL DEATH” (SORBONNE UNIVERSITE, priority 2018, published 2022).

Tested on: murine B78 melanoma cells
Conditions: melphalan killed B78 cells injected, re-challenged 10 days later with B78 viable cells; cited from earlier work

For N[C@@H](Cc1ccc(N(CCCl)CCCl)cc1)C(=O)O [melphalan], the mice without tumor is listed as 40%.
